Results reported in EPA's CvTdb concentration-time database.

Key:
Rat [1] = assay: concentration in plasma after dosing; conditions: 2.5 min; dosed: 2-Hydroxy-4-methoxybenzophenone; 500 mg/kg; oral; Female; F344
Rat [2] = assay: concentration in plasma after dosing; conditions: dosed: 2-Hydroxy-4-methoxybenzophenone, 100 mg/kg, oral, Female, F344
Mouse [3] = assay: concentration in plasma after dosing; conditions: 3 h; dosed: 2-Hydroxy-4-methoxybenzophenone; 250 mg/kg; oral; Female; B6C3F1
Mouse [4] = assay: concentration in plasma after dosing; conditions: 2.5 min; dosed: 2-Hydroxy-4-methoxybenzophenone; 250 mg/kg; oral; Male; B6C3F1
Rat [5] = assay: concentration in plasma after dosing; conditions: dosed: 2-Hydroxy-4-methoxybenzophenone, 100 mg/kg, oral, Male, F344
Rat [6] = assay: concentration in plasma after dosing
Rat [7] = assay: concentration in plasma after dosing; conditions: 6 h; dosed: 2-Hydroxy-4-methoxybenzophenone; 500 mg/kg; oral; Male; F344
Mouse [8] = assay: concentration in plasma after dosing; conditions: 2 h; dosed: 2-Hydroxy-4-methoxybenzophenone; 50 mg/kg; iv; Female; B6C3F1
rat [9] = assay: amount in urine after dosing (umol); conditions: dosed: methanol, 100 mg/kg, iv, male, CDF(F344)/CrlBR
Rat [10] = assay: concentration in plasma after dosing; conditions: 10 min; dosed: Nitrite; 80 mg/kg; oral; Female; F344
Rat [11] = assay: concentration in plasma after dosing; conditions: dosed: Nitrite, 80 mg/kg, oral, Female, F344
Rat [12] = assay: concentration in plasma after dosing; conditions: 0.5 h; dosed: Nitrite; 20 mg/kg; iv; Male; F344
Rat [13] = assay: concentration in plasma after dosing; conditions: dosed: Nitrite, 20 mg/kg, iv, Male, F344

COc1ccc(C(=O)c2ccccc2)c(O)c1 [2-Hydroxy-4-methoxybenzophenone]
Conditions | concentration in plasma [ng/mL]
Mouse [3] | 35.5
Mouse [4] | 18.2
Mouse [8] | 317
Rat [1] | 12.8
Rat [7] | 293

concentration in plasma [ng/mL]
Conditions | 0.25 h | 3 h | 4 h | 10 min
Rat [2] | – | 7.19 | – | 38.2
Rat [5] | 218 | 6.64 | 28.5 | 106

concentration in plasma [ng/mL], Rat [6], dosed: 2-Hydroxy-4-methoxybenzophenone, F344
Conditions | 0.25 h | 2 h | 2.5 min | 3 h | 4 h | 6 h | 10 h | 10 min
8 mg/kg, iv, Female | 1560 | 75.6 | – | – | 36.8 | – | – | 2540
8 mg/kg, iv, Male | 1860 | 99.2 | – | – | – | – | 70.1 | 72.5
100 mg/kg, oral, Female | 86.5 | – | – | 14.5 | 10.6 | – | – | 113
100 mg/kg, oral, Male | 171 | – | – | 17.3 | 42.4 | – | – | 140
250 mg/kg, oral, Female | 331 | – | – | 71.9 | 87.1 | – | – | 32.7
250 mg/kg, oral, Male | 82.8 | – | – | 54.6 | 65.2 | – | – | 19.4
500 mg/kg, oral, Female | 231 | – | 7.13 | – | 452 | – | 49.7 | 113
500 mg/kg, oral, Male | 614 | – | – | – | 450 | 225 | 65.2 | 116

CO [methanol]
rat [9]
Conditions | amount in urine
0.9577 h | 2.05
2.957 h | 4.06
5.924 h | 5.16
9.972 h | 5.6
11.92 h | 5.58
14.94 h | 5.56

O=N[O-] [Nitrite]
Conditions | concentration in plasma [ng/mL]
Rat [10] | 31800
Rat [12] | 3700

concentration in plasma [ng/mL]
Conditions | 0.75 h | 2 min | 6 h | 10 min
Rat [11] | – | – | 1700 | 10800
Rat [13] | 4000 | 2000 | – | –

concentration in plasma [ng/mL], Rat [6], dosed: Nitrite
Conditions | Female | Male
0.5 h, 20 mg/kg, iv, F344 | – | 2600
0.5 h, 40 mg/kg, oral, F344 | 6000 | 1900
0.5 h, 80 mg/kg, oral, F344 | 11300 | –
0.75 h, 20 mg/kg, iv, F344 | – | 2400
1 h, 20 mg/kg, iv, F344 | – | 2000
1 h, 40 mg/kg, oral, F344 | 2900 | 3400
1 h, 80 mg/kg, oral, F344 | 9700 | –
2 h, 40 mg/kg, oral, F344 | 2600 | –
2 h, 80 mg/kg, oral, F344 | 7500 | –
2 min, 20 mg/kg, iv, F344 | – | 14800
2 min, 40 mg/kg, oral, F344 | 3100 | –
2 min, 40 mg/kg, oral, Harlan Sprague-Dawley | 2200 | –
2 min, 80 mg/kg, oral, F344 | 8200 | –
4 h, 80 mg/kg, oral, F344 | 2400 | –
5 min, 20 mg/kg, iv, F344 | – | 3100
5 min, 40 mg/kg, oral, F344 | 4800 | –
5 min, 40 mg/kg, oral, Harlan Sprague-Dawley | 1700 | –
5 min, 80 mg/kg, oral, F344 | 12400 | –
6 h, 80 mg/kg, oral, F344 | 2000 | –
8 h, 80 mg/kg, oral, F344 | 1700 | –
10 h, 80 mg/kg, oral, F344 | 1700 | –
10 min, 20 mg/kg, iv, F344 | – | 4300
10 min, 40 mg/kg, oral, F344 | 5900 | 3400
10 min, 40 mg/kg, oral, Harlan Sprague-Dawley | 2500 | –
10 min, 80 mg/kg, oral, F344 | 7500 | –
20 min, 20 mg/kg, iv, F344 | – | 900
